The text below walks through data of US9409952B2, “Peptide-compound cyclization method” (Chugai Seiyaku Kabushiki Kaisha, priority 2011, dated 2016).

Positions of bridges follow the written chain, without caps; N, C: chain ends. Non-standard residues stand in square brackets, D forms with d. Residues, ends and D or L forms follow the SMILES beside them. ξ: configuration not given here. *: point of attachment. NMeF = CN[C@@H](Cc1ccccc1)C(=O)O; NMeI = CC[C@H](C)[C@H](NC)C(=O)O; NMeL = CN[C@@H](CC(C)C)C(=O)O; ξNMeF = CNC(Cc1ccccc1)C(=O)O; NMeV = CN[C@H](C(=O)O)C(C)C; NMeA = CN[C@@H](C)C(=O)O; Piperidide = C1CCN(*)CC1; Sar = CNCC(=O)O

Data set [1] in a line: PAMPA (parallel artificial membrane permeability assay). Type of data set: in vitro ADME. As to conditions: PAMPA, pH 6.5. A digest of the protocol: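 Artificial membrane was 10% (w/v) egg lecithin plus 0.5% (w/v) cholesterol in dodecane on a PVDF filter. A 10 mM DMSO stock was added at 0.5% (v/v) to donor buffer (50 mM MOPSO, pH 6.5, 5.0% glycocholic acid). After 18 h at 37 °C, LC/MS or LC/UV gave donor and acceptor levels for Pe.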

The nature of data set [2]: Metabolic stability in human hepatic microsome. The data set is classed as in vitro ADME. As to conditions: human, microsomes, pH 7.4, CL NADPH(+).

For `CC(C)C[C@H]1C(=O)N[C@@H]([C@@H](C)O)C(=O)N(C)[C@@H](Cc2ccccc2)C(=O)N(C)[C@@H](CC(C)C)C(=O)NCC(=O)N(C)[C@@H](C(C)C)C(=O)N[C@@H](Cc2ccccc2)C(=O)N[C@H](C(=O)N(C)[C@@H](Cc2ccccc2)C(=O)N[C@@H](C)C(=O)N2CCCCC2)CC(=O)N(C)CC(=O)N[C@@H](C(C)C)C(=O)N1C` [DP-304] ([Sar]V[NMeL]T[NMeF][NMeL]G[NMeV]FD[NMeF]A-Piperidide; lactam N-10), the Papp (usually the rate of passage across a membrane or cell layer, normalised by area and donor concentration) at 18 hours, 50 µM in data set [1] turned out to be 35 ×10⁻⁶ cm/s. Besides, in data set [2], the microsomal CLint (commonly a measure of how fast metabolising enzymes remove a compound, apart from limits set by blood flow) at 1 uM amounted to 212 µL/min/mg.
The like results for `CC[C@H](C)[C@H]1C(=O)N[C@H](C(=O)N(C)[C@@H](Cc2ccccc2)C(=O)N[C@@H](C)C(=O)N2CCCCC2)CC(=O)N[C@@H](C)C(=O)N(C)[C@@H](Cc2ccccc2)C(=O)N(C)[C@@H](CC(C)C)C(=O)N[C@@H]([C@@H](C)O)C(=O)N(C)[C@@H](C)C(=O)N[C@@H](C(C)C)C(=O)N(C)[C@@H](CC(C)C)C(=O)N1C` [DP-305] (A[NMeF][NMeL]T[NMeA]V[NMeL][NMeI]D[NMeF]A-Piperidide; lactam N-9) were, in that order, 35 ×10⁻⁶ cm/s and 700 µL/min/mg.
In the same order, the values of `CC(C)C[C@H]1C(=O)N[C@@H](C(C)C)C(=O)N[C@H](C(=O)N(C)C(Cc2ccccc2)C(=O)N(C)[C@@H](Cc2ccccc2)C(=O)N[C@@H](C)C(=O)N2CCCCC2)CC(=O)N[C@H](C(C)C)C(=O)N(C)[C@@H](C)C(=O)N(C)[C@@H](Cc2ccccc2)C(=O)N(C)[C@@H](CC(C)C)C(=O)N[C@@H]([C@@H](C)O)C(=O)N(C)CC(=O)N1C` (some centres unmarked) [DP-306] ([dV][NMeA][NMeF][NMeL]T[Sar][NMeL]VD[ξNMeF][NMeF]A-Piperidide; lactam N-9) are 56 ×10⁻⁶ cm/s and 63 µL/min/mg.
In the same order, the values of `CC(C)C[C@H]1C(=O)NCC(=O)N[C@H](C(=O)N(C)[C@@H](Cc2ccccc2)C(=O)N[C@@H](C)C(=O)N2CCCCC2)CC(=O)N[C@H](C)C(=O)N[C@@H]([C@@H](C)O)C(=O)N(C)[C@@H](C)C(=O)N(C)[C@@H](Cc2ccccc2)C(=O)N[C@@H](C(C)C)C(=O)N(C)[C@@H](Cc2ccccc2)C(=O)N1C` [DP-307] ([dA]T[NMeA][NMeF]V[NMeF][NMeL]GD[NMeF]A-Piperidide; lactam N-9) are 22 ×10⁻⁶ cm/s and 125 µL/min/mg.
`CC(C)C[C@H]1C(=O)N(C)[C@@H](Cc2ccccc2)C(=O)N(C)[C@@H](Cc2ccccc2)C(=O)NCC(=O)N(C)[C@@H](C)C(=O)N[C@@H]([C@@H](C)O)C(=O)N[C@H](C(=O)N(C)[C@@H](Cc2ccccc2)C(=O)N(C)[C@@H](Cc2ccccc2)C(=O)N[C@@H](C)C(=O)N2CCCCC2)CC(=O)N(C)[C@@H](C)C(=O)N[C@@H](C(C)C)C(=O)N1C` [DP-309] ([NMeA]V[NMeL][NMeF][NMeF]G[NMeA]TD[NMeF][NMeF]A-Piperidide; lactam N-9) registered an apparent permeability coefficient (Papp) at 18 hours, 50 µM in data set [1] of 26 ×10⁻⁶ cm/s. In data set [2], the microsomal CLint at 1 uM worked out at 212 µL/min/mg.
Consider `CC(C)C[C@H]1C(=O)N(C)[C@@H](CC(C)C)C(=O)N[C@H](C(=O)N(C)[C@@H](Cc2ccccc2)C(=O)N[C@@H](C)C(=O)N2CCCCC2)CC(=O)N(C)[C@@H](C)C(=O)N[C@@H](C(C)C)C(=O)N(C)[C@@H](Cc2ccccc2)C(=O)N(C)CC(=O)N[C@@H]([C@@H](C)O)C(=O)N(C)[C@@H](C)C(=O)N1C` [DP-310] ([NMeA]V[NMeF][Sar]T[NMeA][NMeL][NMeL]D[NMeF]A-Piperidide; lactam N-9), for which the apparent permeability (Papp) at 18 hours, 50 µM in data set [1] stood at 35 ×10⁻⁶ cm/s. The microsomal CLint at 1 uM in data set [2] stood at 143 µL/min/mg.
Consider `CC(C)C[C@H]1C(=O)N[C@@H](Cc2ccccc2)C(=O)N[C@H](C(=O)N(C)[C@@H](Cc2ccccc2)C(=O)N[C@@H](C)C(=O)N2CCCCC2)CC(=O)N(C)[C@@H](C)C(=O)N[C@@H]([C@@H](C)O)C(=O)N(C)[C@@H](C)C(=O)N[C@@H](C(C)C)C(=O)N(C)CC(=O)N(C)[C@@H](Cc2ccccc2)C(=O)N1C` [DP-311] ([NMeA]T[NMeA]V[Sar][NMeF][NMeL]FD[NMeF]A-Piperidide; lactam N-9), for which the Papp at 18 hours, 50 µM in data set [1] was 48 ×10⁻⁶ cm/s. Also, the intrinsic clearance (microsomal CLint) at 1 uM in data set [2] was found to be 74 µL/min/mg.
